The values below come from patent US8669249B2, “Poly (ADP-ribose) polymerase (PARP) inhibitors” (Takeda Pharmaceutical Company Limited, priority 2009, dated 2014).

Experiment [1] addresses T1, PARP (Homo sapiens, UniProt P09874).
T1 construct: purchased Trevigen 4684-096-K HT (kit); 4684-096-01 (PARP enzyme)
Nature of the experiment: PARP ELISA (ELISA-based colorimetric PARP/Apoptosis Assay kit, Trevigen). In kind it is biochemical. As to conditions: pIC50=-log10 IC50, IC50 in mol/L; inhibition of PARP catalytic activity. Put shortly: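 Quenched after 10 min catalysis by aspiration and four PBS/0.1% Triton X-100 washes. Poly(ADP-ribose) detected with mouse anti-PAR monoclonal antibody, goat anti-mouse IgG-HRP and HRP substrate; colorimetric signal proportional to PARP catalytic activity.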

Experiment [2] addresses T2, catalytic domain of Human PARP (Homo sapiens, UniProt P09874).
T2 construct: The catalytic domain of Human PARP was cloned and prepared; made in house
Nature of the experiment: Biacore surface plasmon resonance affinity assay. In kind it is binding. The conditions noted are these: pKD=-log10 KD, KD in mol/L; Biacore T100, 25° C.; read-out: pKD (converted). The method, boiled down: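 Binding at 25° C on Biacore T100: 1 min compound association then 5 min dissociation (50 μL/min) over immobilized PARP catalytic domain, buffer HBS-P plus 1% DMSO, 0.5 mM TCEP, 5 mM MgCl2, 2-fold dilution series. KD derived as koff/kon from fitted association and dissociation phases.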
On the technique in general: SPR reads the build-up and loss of mass on a sensor chip optically.

Experiment [3] relates to Jurkat cell line. Nature of the experiment: PARP cellular chemopotentiation assay (MTS, with/without TMZ). It is filed as cell-based. As to conditions: Chemopotentiation factor: ratio of EC50 values of Jurkat cells co-treated without and with 100 μM TMZ; 96 hours. Put shortly: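 Jurkat cells, 10,000/well, pre-cultured 24 h, then treated 96 h with serial compound dilutions (0.5% DMSO) with or without 100 μM TMZ. Viability by MTS conversion (OD490), normalized to DMSO controls; EC50 from curve fits, PF50 = EC50 without TMZ / EC50 with TMZ.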

T2 sequence (P09874 788-1014 limits assumed): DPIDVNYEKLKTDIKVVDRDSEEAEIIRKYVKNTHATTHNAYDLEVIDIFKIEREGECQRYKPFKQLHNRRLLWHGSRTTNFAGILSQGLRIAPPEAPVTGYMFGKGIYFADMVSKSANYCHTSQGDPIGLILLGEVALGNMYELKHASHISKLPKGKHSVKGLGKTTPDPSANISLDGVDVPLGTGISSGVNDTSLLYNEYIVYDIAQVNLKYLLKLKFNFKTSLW
T1 sequence (P09874 whole entry): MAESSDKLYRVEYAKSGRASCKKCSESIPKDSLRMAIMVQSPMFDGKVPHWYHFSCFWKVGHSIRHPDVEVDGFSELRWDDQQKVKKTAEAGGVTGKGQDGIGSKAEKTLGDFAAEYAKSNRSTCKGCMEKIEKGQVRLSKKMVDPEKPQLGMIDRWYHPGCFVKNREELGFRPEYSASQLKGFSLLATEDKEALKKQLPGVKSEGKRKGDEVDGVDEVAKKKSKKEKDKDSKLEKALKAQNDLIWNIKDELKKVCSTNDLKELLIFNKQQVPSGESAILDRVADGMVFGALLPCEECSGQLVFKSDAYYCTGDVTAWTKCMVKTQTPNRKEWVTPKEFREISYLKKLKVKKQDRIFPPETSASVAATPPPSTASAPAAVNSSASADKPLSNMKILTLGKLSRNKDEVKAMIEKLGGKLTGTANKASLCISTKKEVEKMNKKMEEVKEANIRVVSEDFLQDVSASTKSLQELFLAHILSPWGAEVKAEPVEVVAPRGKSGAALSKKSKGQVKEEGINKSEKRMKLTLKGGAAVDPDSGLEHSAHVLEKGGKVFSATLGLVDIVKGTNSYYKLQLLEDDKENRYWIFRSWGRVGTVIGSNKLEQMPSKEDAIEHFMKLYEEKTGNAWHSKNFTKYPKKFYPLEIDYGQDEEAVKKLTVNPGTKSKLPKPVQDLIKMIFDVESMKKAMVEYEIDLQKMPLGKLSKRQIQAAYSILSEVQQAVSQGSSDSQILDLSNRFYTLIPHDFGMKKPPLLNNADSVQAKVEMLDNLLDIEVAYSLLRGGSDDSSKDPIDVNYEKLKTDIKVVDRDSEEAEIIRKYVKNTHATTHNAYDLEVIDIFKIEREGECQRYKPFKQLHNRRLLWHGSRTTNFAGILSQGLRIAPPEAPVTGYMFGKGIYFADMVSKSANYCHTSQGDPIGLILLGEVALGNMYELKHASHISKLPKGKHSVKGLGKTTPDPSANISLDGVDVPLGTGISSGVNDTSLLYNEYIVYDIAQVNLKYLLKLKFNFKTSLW

By IC50 is commonly meant the concentration that gives 50% inhibition. Low readings indicate higher potency, high ones lower potency. Consider `CCNC(=O)c1ccc(N2CCN(Cc3ccc4c(c3)NC(=O)C(C)O4)CC2)cc1` (stereo not drawn) [Compound 224, N-Ethyl-4-(4-((2-methyl-3-oxo-3,4-dihydro-2H-benzo[b][1,4]oxazin-6-yl)methyl)piperazin-1-yl)benzamide], for which, in experiment [1], the IC50 is ≤ 31.6 nM. For the same molecule, the Kd in experiment [2] is ≤ 10 nM. Further, the PF50 in experiment [3] is 2.0-9.9.

As for `CCNC(=O)c1ccc(N2CCN(Cc3ccc4c(c3)NC(=O)C(C)O4)CC2)nc1` (stereo not drawn) [Compound 236, N-Ethyl-6-(4-((2-methyl-3-oxo-3,4-dihydro-2H-benzo[b][1,4]oxazin-6-yl)methyl)piperazin-1-yl)nicotinamide], in experiment [1], the half-maximal inhibitory concentration (IC50) was ≤ 31.6 nM. Besides, the Kd in experiment [2] is ≤ 10 nM. Further, the PF50 result in experiment [3] is recorded as “≦0.9”.

Take `CNC(=O)c1ccc(N2CCN(Cc3ccc4c(c3)NC(=O)C(C)O4)CC2)nc1` (stereo not drawn) [Compound 235, N-Methyl-6-(4-((2-methyl-3-oxo-3,4-dihydro-2H-benzo[b][1,4]oxazin-6-yl)methyl)piperazin-1-yl)nicotinamide]: the IC50 in experiment [1] was ≤ 31.6 nM. Further, in experiment [2], the Kd was ≤ 10 nM. In addition, in experiment [3], the PF50 is 2.0-9.9.

For `COc1cc(CN2CCN(c3ccccc3)CC2)cc2c1OC(C)C(=O)N2` (stereo not drawn) [Compound 156, 8-Methoxy-2-methyl-6-((4-phenylpiperazin-1-yl)methyl)-2H-benzo[b][1,4]oxazin-3(4H)-one], the IC50 in experiment [1] was ≥ 126 nM. Moreover, the Kd in experiment [2] is ≤ 10 nM. In addition, the PF50 in experiment [3] was 1.0-1.9.

In the case of `CC1Oc2c(F)cc(CN3CCN(c4ccc(C(=O)NC5CC5)cc4)CC3)cc2NC1=O` (stereo not drawn) [Compound 273, N-Cyclopropyl-4-(4-((8-fluoro-2-methyl-3-oxo-3,4-dihydro-2H-benzo[b][1,4]oxazin-6-yl)methyl)piperazin-1-yl)benzamide], the concentration for half-maximal inhibition (IC50) in experiment [1] is ≤ 31.6 nM. Further, in experiment [2], the Kd was < 31.6 nM. The PF50 entry in experiment [3] is “≦0.9”.

Consider `CCNC(=O)c1ccc(N2CCN(Cc3cc(F)c4c(c3)NC(=O)C(C)O4)CC2)cc1` (stereo not drawn) [Compound 272, N-Ethyl-4-(4-((8-fluoro-2-methyl-3-oxo-3,4-dihydro-2H-benzo[b][1,4]oxazin-6-yl)methyl)piperazin-1-yl)benzamide], for which the concentration for half-maximal inhibition (IC50) in experiment [1] was 39.8 to 100 nM. The Kd in experiment [2] was < 31.6 nM. For the same molecule, in experiment [3], the PF50 was 1.0-1.9.

Turning to `CC1Oc2ccc(CN3CCN(c4ccc(C#N)cc4)CC3)cc2NC1=O` (stereo not drawn) [Compound 219, 4-(4-((2-methyl-3-oxo-3,4-dihydro-2H-benzo[b][1,4]oxazin-6-yl)methyl)piperazin-1-yl)benzonitrile], the IC50 in experiment [1] was ≤ 31.6 nM. Besides, in experiment [2], the Kd was ≤ 10 nM. Moreover, the PF50 entry in experiment [3] is “≦0.9”.

`CC1Oc2ccc(CN3CCN(c4ccc(Cl)cn4)CC3)cc2NC1=O` (stereo not drawn) [Compound 61, 6-((4-(5-Chloropyridin-2-yl)piperazin-1-yl)methyl)-2-methyl-2H-benzo[b][1,4]oxazin-3(4H)-one] showed a concentration for half-maximal inhibition (IC50) in experiment [1] of 39.8 to 100 nM. In experiment [2], the Kd is ≤ 10 nM. The PF50 result in experiment [3] is “≦0.9”.

For `CC1Oc2ccc(Cn3ncc4ccccc43)cc2NC1=O` (stereo not drawn) [Compound 345, 6-((1H-Indazol-1-yl)methyl)-2-methyl-2H-benzo[b][1,4]oxazin-3(4H)-one], the IC50 in experiment [1] was 79.4 nM. Also, in experiment [3], the PF50 stood at 1.2.

In experiment [1], `COc1cc(CN2CCN(c3ccc(C(=O)NC4CC4)cc3Cl)CC2)cc2c1OC(C)C(=O)N2` (stereo not drawn) [Compound 373, 3-Chloro-N-cyclopropyl-4-(4-((8-methoxy-2-methyl-3-oxo-3,4-dihydro-2H-benzo[b][1,4]oxazin-6-yl)methyl)piperazin-1-yl)benzamide] gave a 50% inhibitory concentration (IC50) of 20 nM. For the same molecule, in experiment [3], the PF50 turned out to be 3.2.

The molecule `CNC(=O)c1ccc(N2CCN(Cc3cc4c(c(OC(F)F)c3)OC(C)C(=O)N4)CC2)c(C)c1` (stereo not drawn) [Compound 406, 4-(4-((8-(Difluoromethoxy)-2-methyl-3-oxo-3,4-dihydro-2H-benzo[b][1,4]oxazin-6-yl)methyl)piperazin-1-yl)-N,3-dimethylbenzamide] had an IC50 in experiment [1] of 63.1 nM. For the same molecule, the PF50 in experiment [3] worked out at 13.

The molecule `CCNC(=O)c1ccc(N2CCN(Cc3cc4c(c(OCC)c3)OC(C)C(=O)N4)CC2)c(C)c1` (stereo not drawn) [Compound 401, 4-(4-((8-Ethoxy-2-methyl-3-oxo-3,4-dihydro-2H-benzo[b][1,4]oxazin-6-yl)methyl)piperazin-1-yl)-N-ethyl-3-methylbenzamide] had an IC50 in experiment [1] of 50.1 nM. The PF50 in experiment [3] is given as >5000.

With `CCNC(=O)c1ccc(N2CCN(Cc3cc4c(c(OCC)c3)OC(C)C(=O)N4)CC2)c(Cl)c1` (stereo not drawn) [Compound 399, 3-Chloro-4-(4-((8-ethoxy-2-methyl-3-oxo-3,4-dihydro-2H-benzo[b][1,4]oxazin-6-yl)methyl)piperazin-1-yl)-N-ethylbenzamide], inhibition in experiment [1] was half-maximal at 63.1 nM (IC50). Also, in experiment [3], the PF50 is >4.0.

Molecule `CNC(=O)c1ccc(N2CCN(Cc3cc4c(c(OC)c3)OCC(=O)N4)CC2)c(C)c1` [Compound 376, 4-(4-((8-Methoxy-3-oxo-3,4-dihydro-2H-benzo[b][1,4]oxazin-6-yl)methyl)piperazin-1-yl)-N,3-dimethylbenzamide] had an IC50 in experiment [1] of 15.8 nM. For the same molecule, in experiment [3], the PF50 was >6.0.

In experiment [1], `CCNC(=O)c1ccc(N2CCN(Cc3cc(C)c4c(c3)NC(=O)C(C)O4)CC2)c(C)c1` (stereo not drawn) [Compound 385, 4-(4-((2,8-Dimethyl-3-oxo-3,4-dihydro-2H-benzo[b][1,4]oxazin-6-yl)methyl)piperazin-1-yl)-N-ethyl-3-methylbenzamide] gave an IC50 of 50.1 nM. Moreover, the PF50 in experiment [3] came to 5.9.

Take `Cc1cc(CN2CCN(c3ccc(C(=O)NC4CC4)cc3Cl)CC2)cc2c1OC(C)C(=O)N2` (stereo not drawn) [Compound 388, 3-Chloro-N-cyclopropyl-4-(4-((2,8-dimethyl-3-oxo-3,4-dihydro-2H-benzo[b][1,4]oxazin-6-yl)methyl)piperazin-1-yl)benzamide]: the IC50 in experiment [1] was 79.4 nM. In addition, the PF50 in experiment [3] was found to be 6558.

For `Cc1cc2c(cc1CN1CC=C(c3ccc(Cl)cc3)CC1)NC(=O)C(C)O2` (stereo not drawn) [Compound 321, 6-((4-(4-Chlorophenyl)-5,6-dihydropyridin-1(2H)-yl)methyl)-2,7-dimethyl-2H-benzo[b][1,4]oxazin-3(4H)-one], half-maximal inhibition in experiment [1] (IC50) required 2 nM. In experiment [3], the PF50 is recorded as 1.4.

`CNC(=O)c1ccc(N2CCN(Cc3cc4c(c(OC(F)F)c3)OC(C)C(=O)N4)CC2)cc1` (stereo not drawn) [Compound 403, 4-(4-((8-(Difluoromethoxy)-2-methyl-3-oxo-3,4-dihydro-2H-benzo[b][1,4]oxazin-6-yl)methyl)piperazin-1-yl)-N-methylbenzamide]: inhibition in experiment [1] was half-maximal at 63.1 nM (IC50). Also, the PF50 in experiment [3] is >2.0.

For `CCNC(=O)c1ccc(N2CCN(Cc3cc4c(c(OC)c3)OC(C)C(=O)N4)CC2)c(F)c1` (stereo not drawn) [Compound 360, N-Ethyl-3-fluoro-4-(4-((8-methoxy-2-methyl-3-oxo-3,4-dihydro-2H-benzo[b][1,4]oxazin-6-yl)methyl)piperazin-1-yl)benzamide], in experiment [1], the midpoint of inhibition, the IC50, lay at 39.8 nM. Further, the PF50 in experiment [3] was 3.1.

`CCCc1cc(CN2CCN(c3ccc(C(=O)NC)cc3)CC2)cc2c1OC(C)C(=O)N2` (stereo not drawn) [Compound 358, N-Methyl-4-(4-((2-methyl-3-oxo-8-propyl-3,4-dihydro-2H-benzo[b][1,4]oxazin-6-yl)methyl)piperazin-1-yl)benzamide]: the 50% inhibitory concentration (IC50) in experiment [1] was > 200 nM. For the same molecule, the PF50 in experiment [3] is >3.0.

On to `CCNC(=O)c1ccc(N2CCN(Cc3cc(C)c4c(c3)NC(=O)C(C)O4)CC2)cc1` (stereo not drawn) [Compound 258, 4-(4-((2,8-Dimethyl-3-oxo-3,4-dihydro-2H-benzo[b][1,4]oxazin-6-yl)methyl)piperazin-1-yl)-N-ethylbenzamide], for which the IC50 in experiment [1] is ≤ 31.6 nM. The PF50 result in experiment [3] was “≧10.0”.

As to `CCNC(=O)c1ccc(N2CCN(Cc3ccc4c(c3)NC(=O)CO4)CC2)c(Cl)c1` [Compound 367, 3-Chloro-N-ethyl-4-(4-((3-oxo-3,4-dihydro-2H-benzo[b][1,4]oxazin-6-yl)methyl)piperazin-1-yl)benzamide], the half-inhibitory concentration (IC50) in experiment [1] is > 200 nM. Besides, the PF50 in experiment [3] was determined as 2.5.

With `CCNC(=O)c1ccc(N2CCN(Cc3ccc4c(c3)NC(=O)[C@H](C)O4)CC2)cc1` [Compound 249, (S)-N-Ethyl-4-(4-((2-methyl-3-oxo-3,4-dihydro-2H-benzo[b][1,4]oxazin-6-yl)methyl)piperazin-1-yl)benzamide], the 50% inhibitory concentration (IC50) in experiment [1] was ≤ 31.6 nM. In addition, the PF50 in experiment [3] is 1.0-1.9.

`CCOC(=O)c1ccc(N2CCN(Cc3cc(Cl)c4c(c3)NC(=O)C(C)O4)CC2)cc1` (stereo not drawn) [Compound 306, Ethyl 4-(4-((8-chloro-2-methyl-3-oxo-3,4-dihydro-2H-benzo[b][1,4]oxazin-6-yl)methyl)piperazin-1-yl)benzoate] gave an IC50 in experiment [1] of 79.4 nM. Besides, the PF50 in experiment [3] turned out to be 1.3.

In turn, `CC1Oc2cc(F)c(CN3CCN(c4ccc(C(=O)NC5CC5)cc4)CC3)cc2NC1=O` (stereo not drawn) [Compound 338, N-Cyclopropyl-4-(4-((7-fluoro-2-methyl-3-oxo-3,4-dihydro-2H-benzo[b][1,4]oxazin-6-yl)methyl)piperazin-1-yl)benzamide] gave an IC50 in experiment [1] of 79.4 nM. The PF50 in experiment [3] was found to be 0.4.

Take `CC1Oc2ccc(CC3CCN(c4ccccc4)CC3)cc2NC1=O` (stereo not drawn) [Compound 389, 2-Methyl-6-((1-phenylpiperidin-4-yl)methyl)-2H-benzo[b][1,4]oxazin-3(4H)-one]: in experiment [1], the half-inhibitory concentration (IC50) was > 200 nM. For the same molecule, the PF50 in experiment [3] came out at 1.1.
